In patent US20220135622A1, “ANTIBACTERIAL PEPTIDES AND METHODS OF USE” (priority 2019, published 2022):
In brackets after ≈: the same amount, converted by molar mass. Like-named read-outs stand apart in the source and are kept apart here. Square brackets hold non-standard residues; d marks the D form. Peptide text beside a SMILES is read from it. Bip = N[C@@H](Cc1ccc(-c2ccccc2)cc1)C(=O)O; hhPhe = N[C@@H](CCCc1ccccc1)C(=O)O; hPhe = N[C@@H](CCc1ccccc1)C(=O)O; Ahp(2) = CCCCC[C@H](N)C(=O)O; Dap = NC[C@H](N)C(=O)O

What was measured:
A. baumannii = format: cell-based, Acinetobacter baumannii; details: Table 8
Procedure: (§1) Bacterial growth conditions. LB or Mueller Hinton II cation-adjusted broth (MHB II, BBL 212322) was prepared according to manufacturer's instructions and supplemented with arabinose at 0.02% for overnight growth or at indicated concentrations in the description of the figures. Bacterial cultures were grown at 37° C. When appropriate, media was supplemented with kanamycin (50 μg/mL), carbenicillin (50 μg/mL), chloramphenicol (12.5 or 25 μg/mL), hygromycin (200 μg/mL), and/or gentamicin (10 μg/mL).
(§2) Peptide sensitivity and MIC assays. Lyophilized peptides (Smartox Biotechnology, CPC Scientific. ABclonal) were solubilized to 10 mM in Tris buffer, pH 8, prior to making a 2-fold dilution series in MHBII cation adjusted broth with highest final assay concentration of 400-800 μM. Bacteria were grown to log phase and added to final OD600˜0.001. The final EDTA concentration was 0.5 mM for E. coli strains and 0.125 mM for USA300. The final volume of 10 μL/well in a 384 well black, clear bottom plate (Corning) was spun <1 min at <250×g and then incubated at 37° C. After 4 h, an equal volume (10 μL) of BacTiter-Glo™ (Promega) was added to each well and luminescence was read after 5 min on an EnVision plate reader (PerkinElmer). To measure the minimal inhibitory concentrations (MICs), bacteria from fresh overnight plates or log phase cultures were diluted with or without EDTA and peptides as described above to final OD600˜0.0002. Plates were incubated at 37° C. for 20 h before measuring OD600 with an EnVision plate reader.

K. pneumoniae = format: cell-based, Klebsiella pneumoniae; details: Table 8
Procedure: as §1, §2

P. aeruginosa = format: cell-based, Pseudomonas aeruginosa; details: Table 8
Procedure: as §1, §2

E. coli BW25113 = format: cell-based, Escherichia coli
Procedure: as §1, §2

S. aureus USA300 = assay: MIC assay, S. aureus USA300; format: cell-based, Staphylococcus aureus; details: Table 7
Procedure: as §1, §2

E. coli imp4213 = assay: MIC assay, E. coli imp4213; format: cell-based, Escherichia coli; details: Table 7
Procedure: as §1, §2

Row | Compound | MIC S. aureus USA300 (S. aureus USA300) | MIC E. coli imp4213 (E. coli imp4213) | also measured
1 | CSCC[C@H](NC(=O)[C@@H]1CCCN1C(=O)[C@H](Cc1ccc(O)cc1)NC(C)=O)C(=O)N[C@@H](CN)C(=O)N[C@@H](Cc1ccccc1)C(=O)N[C@@H](CCCNC(=N)N)C(=O)N[C@@H](CCCNC(=N)N)C(=O)N[C@@H](Cc1ccccc1)C(=O)N[C@@H](CC(C)C)C(=O)N[C@@H](CCC(=O)O)C(=O)N[C@@H](CCCCN)C(=O)N[C@@H](Cc1c[nH]c2ccccc12)C(=O)NCC(=O)N[C@@H](CC(C)C)C(=O)N[C@@H](CC(C)C)C(=O)N[C@@H](CCCNC(=N)N)C(N)=O [compound 69] (Ac-YPM[Dap]FRRFLEKWGLLR-NH2) |  |  | MIC A. baumannii (A. baumannii): 12.5 µM (≈ 26.7 µg/mL); MIC K. pneumoniae (K. pneumoniae): 100 µM (≈ 214 µg/mL); MIC R. aeruginosa (P. aeruginosa): 200 µM (≈ 428 µg/mL); MIC E. coli BW25113 (E. coli BW25113; Table 8): 50 µM (≈ 107 µg/mL)
2 | CCCCC[C@H](NC(=O)[C@@H](NC(=O)[C@H](CCSC)NC(=O)[C@@H]1CCCN1C(=O)[C@H](Cc1ccc(O)cc1)NC(C)=O)[C@@H](C)O)C(=O)N[C@@H](CCCNC(=N)N)C(=O)N[C@@H](CCCNC(=N)N)C(=O)N[C@@H](Cc1ccccc1)C(=O)N[C@@H](CC(C)C)C(=O)N[C@@H](CCC(=O)O)C(=O)N[C@@H](CCCCN)C(=O)N[C@@H](Cc1c[nH]c2ccccc12)C(=O)NCC(=O)N[C@@H](CC(C)C)C(=O)N[C@@H](CC(C)C)C(=O)N[C@@H](CCCNC(=N)N)C(N)=O [compound 71] (Ac-YPMT[Ahp(2)]RRFLEKWGLLR-NH2) |  |  | MIC A. baumannii (A. baumannii): <6.25 µM; MIC K. pneumoniae (K. pneumoniae): 50 µM (≈ 107 µg/mL); MIC R. aeruginosa (P. aeruginosa): 50 µM (≈ 107 µg/mL); MIC E. coli BW25113 (E. coli BW25113; Table 8): 100 µM (≈ 213 µg/mL)
3 | CC(=O)N[C@@H](CCCNC(=N)N)C(=O)N1CCC[C@H]1C(=O)N[C@@H](CCc1ccccc1)C(=O)N[C@H](C(=O)N[C@@H](C)C(=O)N[C@@H](CCCNC(=N)N)C(=O)N[C@@H](CCCNC(=N)N)C(=O)N[C@@H](Cc1c[nH]c2ccccc12)C(=O)N[C@@H](CC(C)C)C(=O)N[C@@H](C)C(=O)N[C@@H](CCCCN)C(=O)N[C@@H](CCCNC(=N)N)C(=O)NCC(=O)N[C@@H](CC(C)C)C(N)=O)[C@@H](C)O [compound 222] (Ac-RP[hPhe]TARRWLAKRGL-NH2) |  |  | MIC E. coli BW25113 (E. coli BW25113; BW25113): 12.5 µM (≈ 22.3 µg/mL)
4 | CCCCC[C@H](NC(=O)[C@H](CCCCN)NC(=O)[C@H](C)NC(=O)[C@H](CC(C)C)NC(=O)[C@H](Cc1c[nH]c2ccccc12)NC(=O)[C@H](CCCNC(=N)N)NC(=O)[C@H](CCCNC(=N)N)NC(=O)[C@H](C)NC(=O)[C@@H](NC(=O)[C@H](CCSC)NC(=O)[C@@H]1CCCN1C(=O)[C@H](CCCNC(=N)N)NC(C)=O)[C@@H](C)O)C(=O)NCC(=O)N[C@@H](CC(C)C)C(N)=O [compound 224] (Ac-RPMTARRWLAK[Ahp(2)]GL-NH2) |  |  | MIC E. coli BW25113 (E. coli BW25113; Table 8): 100.0 µM (≈ 172 µg/mL)
5 | CSCC[C@H](NC(=O)[C@H](CN)NC(=O)[C@H](CCCc1ccccc1)NC(=O)[C@@H]1CCCN1C(=O)[C@H](CCCNC(=N)N)NC(C)=O)C(=O)N[C@@H](CCCNC(=N)N)C(=O)N[C@@H](CCCNC(=N)N)C(=O)N[C@@H](Cc1ccc(-c2ccccc2)cc1)C(=O)N[C@@H](CC(C)C)C(=O)N[C@@H](C)C(=O)N[C@@H](CCCCN)C(=O)N[C@@H](CCCNC(=N)N)C(=O)NCC(=O)N[C@@H](CC(C)C)C(N)=O [compound 226] (Ac-RP[hhPhe][Dap]MRR[Bip]LAKRGL-NH2) |  |  | MIC E. coli BW25113 (E. coli BW25113; BW25113): 25.0 µM (≈ 47 µg/mL)
6 | CSCC[C@H](NC(=O)[C@H](CN)NC(=O)[C@H](CCCc1ccccc1)NC(=O)[C@@H]1CCCN1C(=O)[C@H](CCCNC(=N)N)NC(C)=O)C(=O)N[C@@H](CCCNC(=N)N)C(=O)N[C@@H](CCCNC(=N)N)C(=O)N[C@@H](Cc1c[nH]c2ccccc12)C(=O)N[C@@H](CC(C)C)C(=O)N[C@@H](C)C(=O)N[C@@H](CCCCN)C(=O)N[C@@H](CCCNC(=N)N)C(=O)NCC(=O)N[C@@H](CC(C)C)C(N)=O [compound 227] (Ac-RP[hhPhe][Dap]MRRWLAKRGL-NH2) |  |  | MIC E. coli BW25113 (E. coli BW25113; BW25113): 50.0 µM (≈ 92.1 µg/mL)
7 | Ac-APMTARRFLEKHGL-NH2 [compound 16] | >800 µM | 100 µM | 
8 | Ac-FPMTARRFLEKHGL-NH2 [compound 17] | >800 µM | 200 µM | 
9 | Ac-KPMTARRFLEKWGLLR-NH2 [compound 61] |  | 12.5 µM | MIC A. baumannii (A. baumannii): 40 µM; MIC R. aeruginosa (P. aeruginosa): 400 µM
10 | Ac-RPMTARRFLEKHGL-NH2 [compound 19] | >800 µM | 25 µM | 
11 | Ac-RPMTWRRWLEKHGL-NH2 [compound 204] |  |  | MIC E. coli BW25113 (E. coli BW25113; Table 8): 200.0 µM
12 | Ac-RPMTWRRWLEKYGL-NH2 [compound 205] |  |  | MIC E. coli BW25113 (E. coli BW25113; BW25113): 200.0 µM
13 | Ac-WPMTARRFLEKHGL-NH2 [compound 18] | >800 µM | 200 µM | 
14 | Ac-YAMTARRFLEKHGL-NH2 [compound 20] | >800 µM | 400 µM | 
15 | Ac-YPATARRFLEKHGL-NH2 [compound 21] | >800 µM | 800 µM | 
16 | Ac-YPFTARRFLEKHGL-NH2 [compound 23] | >800 µM | 400 µM | 
17 | Ac-YPFTFRRFLEKWGLLR-NH2 [compound 79] |  |  | MIC E. coli BW25113 (E. coli BW25113; Table 8): 200.0 µM
18 | Ac-YPLTARRFLEKHGL-NH2 [compound 22] | >800 µM | 400 µM | 
19 | Ac-YPMAARRFLEKHGL-NH2 [compound 25] | >800 µM | 800 µM | 
20 | Ac-YPMKFRRFLEKWGLLR-NH2 [compound 107] |  |  | MIC E. coli BW25113 (E. coli BW25113; Table 8): 12.5 µM
21 | Ac-YPMRFRRFLEKWGLLR-NH2 [compound 108] |  |  | MIC E. coli BW25113 (E. coli BW25113; Table 8): <12.5 µM
22 | Ac-YPMSARRFLAKWGLLR-NH2 [compound 15] | 800 µM | <12.5 µM | 
23 | Ac-YPMSARRFLEKHGL-NH2 [compound 26] | >800 µM | 800 µM | 

Row | Compound | MIC S. aureus USA300 (S. aureus USA300) | MIC E. coli imp4213 (E. coli imp4213) | also measured
24 | Ac-YPMTAKRFLEKHGL-NH2 [compound 30] | >800 µM | 800 µM | 
25 | Ac-YPMTARAFLEKHGL-NH2 [compound 31] | >800 µM | 800 µM | 
26 | Ac-YPMTARHFLEKHGL-NH2 [compound 33] | >800 µM | 800 µM | 
27 | Ac-YPMTARKFLEKHGL-NH2 [compound 32] | >800 µM | 100 µM | 
28 | Ac-YPMTARRFLAKHGL-NH2 [compound 36] | >800 µM | 100 µM | 
29 | Ac-YPMTARRFLEAHGL-NH2 [compound 39] | >800 µM | 200 µM | 
30 | Ac-YPMTARRFLEHHGL-NH2 [compound 40] | >800 µM | 400 µM | 
31 | Ac-YPMTARRFLEKAGL-NH2 [compound 42] | >800 µM | 800 µM | 
32 | Ac-YPMTARRFLEKHGGL-NH2 [compound 101] |  |  | MIC E. coli BW25113 (E. coli BW25113; Table 8): 50.0 µM
33 | Ac-YPMTARRFLEKHGW-NH2 [compound 47] | >800 µM | 200 µM | 
34 | Ac-YPMTARRFLEKKGL-NH2 [compound 46] | >800 µM | 100 µM | 
35 | Ac-YPMTARRFLEKRGL-NH2 [compound 45] | >800 µM | 100 µM | 
36 | Ac-YPMTARRFLEKWGLLR-NH2 [compound 14] | 800 µM | 25 µM | 
37 | Ac-YPMTARRFLEKYGL-NH2 [compound 43] | >800 µM | 100 µM | 
38 | Ac-YPMTARRFLERHGL-NH2 [compound 41] | >800 µM | 100 µM | 
39 | Ac-YPMTARRFLRKHGL-NH2 [compound 38] | >800 µM | 100 µM | 
40 | Ac-YPMTARRFLSKHGL-NH2 [compound 37] | >800 µM | 400 µM | 
41 | Ac-YPMTARRFWEKHGL-NH2 [compound 35] | >800 µM | 400 µM | 
42 | Ac-YPMTARRWLEKHGL-NH2 [compound 34] | >800 µM | 25 µM | 
43 | Ac-YPMTRRRFLEKHGL-NH2 [compound 29] | >800 µM | 800 µM | 
44 | Ac-YPMTWRRFLEKHGL-NH2 [compound 28] | >800 µM | 50 µM | 
45 | Ac-YPMTYRRFLEKHGL-NH2 [compound 27] | >800 µM | 400 µM | 
46 | Ac-YPWTARRFLEKHGL-NH2 [compound 24] | >800 µM | 400 µM | 
